Measurements as given in US20060194874A1, “Use of propionyl l-carnitine for the preparation of a medicament for the treatment of glaucoma” (priority 2002, published 2006).

Tests used:
BAX = experiment: Cytoimmunological localisation of BAX (DAB staining, haematoxylin counterstain) in serum-deprived 3T6 cells; type: cell-based, murine
Procedure: (§1) To assess the chromatin status (and thus the apoptosis) in serum-deprived 3T6 cells, and, in cells treated with propionyl L-carnitine, a TUNEL (terminal deoxynucleotidyl transferase-mediated dUTP-biotin end labelling) reaction was performed in vitro. TUNEL labelling is a technique that consists in the addition of nucleotides (conjugated with fluorescein) at the free 3′-OH extremities present in the fragmented DNA. This reaction is catalysed by the terminal enzyme transferase. The TUNEL technique was performed on untreated serum-deprived cells and on serum-deprived cells to which the three concentrations (0.25 mM, 0.55 mM, and 1.1 mM) of propionyl L-carnitine already used for the cell counts were administered. […] The binding of the primary antibody with its epitope to BAX was detected with a secondary antibody that exploits DAB ([…]) staining. The cells subjected to cytoimmunological localisation were deprived of serum 24 hours after plating and treated with propionyl L-carnitine at the above-mentioned concentrations. Cells grown in complete medium were used as the positive control, while the negative control was prepared with cells deprived of serum 24 hours after plating.
Counterstaining with a nuclear dye such as haematoxylin was also performed in order to confirm the fact that the staining obtained with cytoimmunological localisation was effectively cytoplasmic. On the basis of the data reported in the literature, in fact, it is known that BAX is a cytoplasmically localised protein. […] On comparing the data obtained in the cell counts, with the TUNEL technique and with cytoimmunological localisation, an improvement can be found in cell survival after treatment with propionyl L-carnitine. This proves evident both in cells grown in complete medium and in cells grown in conditions in which apoptosis is induced as a result of serum deprivation.

[1] = system: 3T6 cells (murine fibroblast line); experiment: Cell count with erythrosine stain, 3T6 cells grown in complete medium; type: cell-based; conditions: 3T6 cells in complete medium, count 24 hours after administration
Procedure: 3T6 cells (murine fibroblast line) grown in complete medium (DMEM: 10% NBS, 2% PEST and 2% glutamine) were treated with propionyl L-carnitine 24 hours after plating the cells. 48 hours after plating (24 hours after administration of the substance), a cell count was performed on the cells thus treated with an erythrosine stain that detects cells that are no longer viable (diluted 1:5 with PBS A buffer) from which the cell survival data were obtained. As controls, we used cells cultivated in complete medium on which the cell count was performed, again 24 hours after plating.

[2] = system: patients suffering from glaucoma; experiment: Clinical trial: ocular colour Doppler ultrasonography, visual field (Octopus) and intraocular pressure; type: in vivo, human
Procedure: Ten patients suffering from glaucoma were treated with propionyl L-carnitine (DROMOS®) by mouth at a dose of 2 g/day for periods ranging from 15 to 50 days. Ocular arterial flow was studied by means of ocular colour Doppler ultrasonography. The posterior (nasal) ciliary artery, the posterior (temporal) ciliary artery, the central retinal and ophthalmic arteries were examined. Systolic and diastolic flow rates were expressed in cm/sec; the ratio (systolic—diastolic flow)/systolic flow expresses the peripheral resistance index. Visual fields before and after treatment with DROMOS® were compared.

[3] = system: 3T6 cells (murine fibroblast line); experiment: TUNEL reaction in vitro (chromatin status) in serum-deprived 3T6 cells; type: cell-based
Procedure: as §1

[4] = system: ganglionic cells of the retina and/or astrocytes of the optic nerve; experiment: In-vivo rat model of methylcellulose (MTC)-induced intraocular hypertension (experimental glaucoma): histology and TUNEL
Procedure: The effect of propionyl L-carnitine was evaluated in an in-vivo experimental rat model. This model of induction of programmed cell death (apoptosis) and/or necrosis of ganglionic cells of the retina and/or astrocytes of the optic nerve is described in the above-mentioned Acta Ophthalmologica Scandinavica, 1988, Supplement 27, 20-21 and Experimental Postgraduate Degree Thesis, Institute of Ophthalmology, “La Sapienza” University, Rome. Intraocular hypertension was induced by means of injecting methylcellulose (MTC) into the anterior chamber. The rats were divided into three groups: 1) untreated (blanks), 2) rats treated with 2% MTC (10 μL), and 3) rats treated with MTC and propionyl L-carnitine 0.15 mM final concentration injected into the anterior chamber. In semithin histological sections of untreated rat optic nerve (haematoxylin-eosin staining), normal longitudinal organisation of the astrocytes among the fibres was detected (FIG. 1A). In contrast, in rats treated with MTC, loss of cell organisation and the presence of necrotic astrocytes were detected (FIG. 1B).

[5] = system: 3T6 cells (murine fibroblast line); experiment: Cell count with erythrosine staining, serum-deprived 3T6 cells (induced apoptosis); type: cell-based; conditions: 0.25 mM, 0.55 mM, 1.1 mM
Procedure: In subsequent experiments, apoptosis was induced in 3T6 cells 24 hours after plating by means of serum deprivation, and simultaneously propionyl L-carnitine was added to the cells. Three different concentrations of the compound were used: 0.25 mM, 0.55 mM and 1.1 mM. 48 hours after plating (24 hours after administration of the substance) a cell count with erythrosine staining was performed. Cells grown in complete medium were taken as the negative control and serum-deprived cells as the positive control.

[6] = ten glaucoma patients, 2 g/day by mouth, 15 to 50 days

## CCC(=O)O[C@H](CC(=O)[O-])C[N+](C)(C)C [propionyl L-carnitine]
BAX; serum-deprived 3T6 cells after treatment
  alterations of chromatin condensation (haematoxylin counterstaining): tend to be reduced
BAX; serum-deprived 3T6 cells, 0.25 mM, 0.55 mM, 1.1 mM
  BAX expression, dependence on concentration: proportional to the different concentrations
BAX; serum-deprived 3T6 cells, FIG. 4B
  expression of BAX compared to untreated serum-deprived cells: a lower expression of BAX
[1]
  cell growth (cell count) compared to untreated control cells: an increase in cell growth
[2]; Patient 1, OS, 30 days of treatment, before treatment 2
  Visual field (Octopus) after treatment, MD: 5.6
[2]; Patient 1, OS, 30 days of treatment, before treatment 11.6
  Visual field (Octopus) after treatment, MS: 20.2
[2]; Patient 1, SN, 30 days, before treatment 0.63
  Posterior nasal ciliary artery resistance index (R.I.) after treatment: 0.66
[2]; Patient 1, SN, 30 days, before treatment 2.21
  Posterior nasal ciliary artery diastolic flow after treatment: 5.75 cm/sec
[2]; Patient 1, SN, 30 days, before treatment 5.96
  Posterior nasal ciliary artery systolic flow after treatment: 16.7 cm/sec
[2]; Patient 2, DX, 12 days, before treatment (SN) 0.67
  Posterior temporal ciliary artery resistance index (R.I.) after treatment: 0.55
[2]; Patient 2, DX, 12 days, before treatment (SN) 1.92
  Posterior temporal ciliary artery diastolic flow after treatment: 3.86 cm/sec
[2]; Patient 2, DX, 12 days, before treatment (SN) 5.75
  Posterior temporal ciliary artery systolic flow after treatment: 8.65 cm/sec
[2]; Patient 2, OD, 12 days of treatment, before treatment 11.1
  Visual field (Octopus) after treatment, MD: 8.4
[2]; Patient 2, OD, 12 days of treatment, before treatment 15.5
  Visual field (Octopus) after treatment, MS: 16.2
[2]; subjects with stable glaucoma, 2 g/day by mouth
  visual fields: improves visual fields
[2]; [6]
  intraocular pressure (IOP): no significant reduction in IOP
  ocular arterial flows: increases the flows
  peripheral resistance index in the sectors affected: reduces the resistance index
[3]; 0.25 mM, 0.55 mM, 1.1 mM
  cytoprotective effect, dependence on concentration: increased with the increase in concentration
[3]; serum-deprived 3T6 cells vs untreated serum-deprived cells, FIG. 3B
  chromatin fragmentation (TUNEL fluorescence intensity): a marked reduction in chromatin fragmentation
[4]; rats treated with 2% MTC (10 μL) and propionyl L-carnitine 0.15 mM final concentration, injected into the anterior chamber, haematoxylin-eosin, FIG. 1C
  organisation of astrocytes in semithin histological sections of optic nerve: longitudinal organisation among the fibres
[4]; rats treated with 2% MTC and propionyl L-carnitine 0.15 mM, anterior chamber, FIG. 1C
  necrotic cells (astrocytes) in optic nerve sections: no necrotic cells were detected
[4]; rats treated with MTC and propionyl L-carnitine 0.15 mM, anterior chamber, fluorescence microscopy, FIG. 2B
  TUNEL fluorescence (apoptotic cells) in optic nerves: the presence of TUNEL fluorescence was not observed
[5]
  cell viability compared to negative control (complete medium): still less than that obtained in the negative control
[5]; count 24 hours after administration
  cell mortality compared to serum-deprived cells (positive control): a reduction in cell mortality
